Laboratory results taken from paper PMC13376213, “Systematic discovery of motif-based interactions of the auxiliary domains of USP family deubiquitinases” (Nature Communications, 2026).
Like-named read-outs stand apart in the source and are kept apart here. Ends that are not written are not given here.

Columns and labels:
USP20 DUSP2 domain [1] = target: T1, USP20 DUSP2 domain (Homo sapiens, UniProt Q9Y2K6); assay: FP-monitored affinity measurements, USP20 DUSP2; type: binding
T1 construct: USP20_DUSP2; Q9Y2K6; DUSP2; 776; 894; 6xHis-GST (N, cleaved yes); made in house; host or cells: Escherichia coli BL21-Gold (DE3)
T1 sequence (Q9Y2K6 with tags, fused parts or gaps): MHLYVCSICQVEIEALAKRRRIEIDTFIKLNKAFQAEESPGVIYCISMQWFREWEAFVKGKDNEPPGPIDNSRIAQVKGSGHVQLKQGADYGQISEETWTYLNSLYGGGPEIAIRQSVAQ
Procedure: (§1) Proteins were expressed in Escherichia coli (E.coli) BL21-Gold (DE3) bacteria. The cDNAs encoding N-terminal 6-histidine-glutathione S-transferase tagged (6xHis-GST), 6xHis-tagged or GST-tagged protein domains in pETM33, pETM11, pGEX6P1 expression vectors respectively, were obtained from Genescript or kindly provided by MRC-PPU (Suppl. Data 1) The bacteria were transformed with the plasmid and grew at 37 °C in 2YT (5 g/L NaCl, 16 g/L tryptone and 10 g/L yeast extract) supplemented with Kanamycin (30 μg/mL) until reaching an OD600 of 0.7. Protein expression was induced with 0.3 mM isopropyl β-D-1 thiogalactopyranoside (IPTG) for 18 h at 18 °C while shaking. For zinc-finger domains, 50 μM of ZnSO4 was added during expression. The bacterial cultures were pelleted for 15 minutes at 4000 x g at 4 °C and stored at −20 °C until purification. The pellets were resuspended in lysis buffer (1× phosphate-buffered saline (PBS), 0.5 % Triton-X, 5 mM MgCl2, 10 μg/mL lysozyme, cOmplete^TM EDTA-free protease inhibitor cocktail (Roche), 10 μg/mL DNAseI) and incubated for 1 h shaking at 4 °C. […] The supernatant was incubated with glutathione (GSH) Sepharose (Cytiva) or Ni2+ Sepharose (Cytiva) for 1 h at 4 °C while shaking. The beads with the bound protein were washed with 1x PBS and eluted with 10 mM reduced glutathione in 50 mM Tris pH 8.0. For fluorescence polarization experiments, the proteins were not eluted from the beads, and the 6xHis-GST tag was cleaved overnight on GSH Sepharose beads at 4 °C while shaking with PreScission Protease in cleavage buffer (50 mM Tris pH 7.5, 150 mM NaCl, 1 mM DTT). The sample containing the cleaved domain was separated from the tag and protease and buffer-exchanged to 50 mM sodium phosphate buffer pH 7.4 with 1 mM DTT using a PD-10 desalting column (Cytiva). The purity and size of the proteins were analyzed by SDS-PAGE electrophoresis.
(§2) The measurements were performed at room temperature in a non-binding black half area 96-well plate (Corning) with a total volume of 50 μL per well. Peptides were obtained from GeneCust (France) with >95% purity. FITC-labeled peptides (N-terminally FITC-labeled without spacer and C-terminally amidated) were dissolved in dimethyl sulfoxide (DMSO), and unlabeled peptides (N-terminally acetylated and C-terminally amidated) were dissolved in 50 mM phosphate buffer pH 7.4. Saturation measurements were performed using a serial dilution of the protein domains in phosphate buffer (25 μL) and the addition of 10 nM FITC-labeled peptide (in phosphate buffer supplemented with 2 mM DTT) (25 μL). […] All measurements were performed in three technical replicates. The data were analyzed using GraphPad Prism version 9.2.0 for MacOS (GraphPad Software, San Diego, California USA, www.graphpad.com). The saturation curves were fitted to the quadratic equation, and the displacement curves were fitted to a sigmoidal dose-response equation as described previously.

USP33 DUSP2 domain [2] = target: T2, USP33 DUSP2 domain (Homo sapiens, UniProt Q8TEY7); assay: FP-monitored affinity measurements, USP33 DUSP2; type: binding; conditions: competitive FP: unlabeled peptide (N-acetylated, C-amidated) against protein with 10 nM FITC-labeled peptide; 50 mM phosphate pH 7.4, room temperature; technical triplicate; read-out: KD, USP33 DUSP2
T2 construct: USP33_DUSP2; Q8TEY7; DUSP2; 806; 921; 6xHis-GST (N, cleaved yes); made in house; host or cells: Escherichia coli BL21-Gold (DE3)
T2 sequence (Q8TEY7 with tags, fused parts or gaps): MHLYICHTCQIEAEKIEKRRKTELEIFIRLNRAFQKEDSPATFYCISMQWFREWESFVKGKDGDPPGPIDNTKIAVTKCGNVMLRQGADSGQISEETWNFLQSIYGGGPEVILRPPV
Procedure: as §1, §2

USP33 DUSP2 domain [3] = target: T2, USP33 DUSP2 domain; assay: Peptide SPOT array, USP33 DUSP2; type: binding; conditions: average normalised to the highest intensity (CCDC88B = 100)
Procedure: (§3) Peptides were synthesized on cellulose membranes with standard Fluoroenylmethylox-ycarbonyl (Fmoc) chemistry using a Multipep automated synthesizer at INTAVIS (Tübingen, Germany) or ordered from JPT (PepSpots). The membranes were activated with methanol for 5 min and washed three times for 5 min with TBST (50 mM Tris, 137 mM NaCl, 2.7 mM KCl, pH 8.0, 0.05% Tween-20). The membranes were incubated with blocking buffer (5% skim milk powder in TBST) for 2 h at room temperature while shaking. The membranes were incubated with the GST-tagged protein diluted at the desired concentration in blocking buffer and incubated overnight at 4 °C while shaking. The membrane was rinsed 3 times with TBST and incubated with HRP-conjugated anti-GST antibody (Cytiva, RPN1236; 1:3000 dilution) in blocking buffer for 1 h at 4 °C while shaking. […] The images were analyzed in Fiji (ImageJ2 version 2.9.0).

USP20 DUSP2 domain [4] = target: T1, USP20 DUSP2 domain; assay: Peptide SPOT array, USP20 DUSP2; type: binding; conditions: for Average: peptide SPOT array intensity minus background, mean of 2 replicas; for Average / Normalize to peptide with higher intensity %: sheet S5A; for Normalize to higher intensity (%) / Normalize to peptide with higher intensity %: peptide SPOT array; for Normalize to higher intensity (%): USP20 DUSP2, average normalised to the highest intensity (ARNTL2 = 100); for Normalize to peptide with higher intensity %: average normalized to the peptide with highest intensity (ARNTL2 = 100);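 on all read-outs here: GST-tagged domain probed overnight at 4 °C on peptides made on cellulose membranes, bound protein detected via HRP-coupled anti-GST antibody, spot intensity from image analysis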
Procedure: as §3

[5] = system: USP auxiliary domains and full-length CYLD and USP7 (baits); assay: ProP-PD selections against the HD2 library; type: binding, human; conditions: for mean_counts_% / specificity: ProP-PD peptide level
Procedure: We generated a collection of 29 USP ADs and two full-length USPs (CYLD and USP7). The collection was biased towards domains that are present in several USPs, such as zf-UBP domains, UBL domains and DUSP domains (Suppl. Data 1). We also included ADs only found in specific USPs, such as the three CAP-Gly domains of CYLD and the C-terminal domain of USP25. […] The peptide-coding regions of the phage pools were analyzed by next-generation sequencing (NGS), mapped to the corresponding proteins, and filtered for high/medium confidence ligands based on established criteria (with confidence level 4 being the highest).
as §1
The human disorderome library was used for four rounds of phage display selections. GST-tagged, 6xHis-tagged or GST-6xHis purified proteins were used as baits and GST was used as control by immobilization on a 96-well MaxiSorp plate (Nunc) overnight at 4 °C while shaking (10 μg of protein in 100 μL PBS). The wells containing the immobilized proteins were blocked with 0.5% BSA in PBS for 1 hour at 4 °C while shaking. The phage library was prepared by precipitation in 1/5th volume PEG/NaCl (20% PEG-8000 + 0.4 M NaCl), incubated for 10 min on ice, followed by centrifugation at 10,000 × g for 10 min at 4 °C and resuspended in PBS. The GST-coated wells were washed four times with 0.05% Tween 20 in PBS, and 100 μL/well phage library was added and incubated 1 h at 4 °C while shaking. The protein-coated wells were washed four times with 0.05% Tween 20 in PBS, and the phage solution from the GST-coated wells was transferred to the protein-coated wells and incubated 2 h at 4 °C while shaking. The unbound phages were removed by washing 5 times with 0.05% Tween 20 in PBS, and the bound phages were eluted with 100 μL/well log-phase E.coli OmniMAX by incubating for 30 min at 37 °C while shaking. M13KO7 helper phages (10^11 PFU/mL) were added to each well and incubated for 45 min at 37 °C while shaking. […]

[6] = bait CYLD_CAP-Gly-2 (Q9NQC7 235-307)
[7] = bait CYLD_CAP-Gly-1 (Q9NQC7 8-210), collapsed regions of overlapping peptides
[8] = bait CYLD_CAP-Gly-2 (Q9NQC7 235-307), collapsed regions of overlapping peptides

Normalize to higher intensity (%) (USP33 DUSP2 domain [3]) | Average (USP20 DUSP2 domain [4]) | Normalize to higher intensity (%) (USP20 DUSP2 domain [4]) | Normalize to peptide with higher intensity % (USP20 DUSP2 domain [4]) [%] | Compound | also measured
 |  |  |  | CC[C@H](C)[C@H](NC(=O)[C@H](Cc1ccc(O)cc1)NC(=O)[C@@H]1CCCN1)C(=O)N1CCC[C@H]1C(=O)N[C@@H](CCSC)C(=O)N[C@@H](CC(=O)O)C(=O)N[C@@H](CC(=O)O)C(=O)N[C@@H](CC(=O)O)C(=O)N[C@@H](C)C(=O)N[C@@H](CCC(N)=O)C(=O)N[C@@H](CC(C)C)C(=O)N[C@@H](CCCNC(=N)N)C(=O)N[C@@H](CO)C(=O)N[C@@H](Cc1ccccc1)C(=O)N[C@@H](CC(=O)O)C(=O)N[C@@H](CCC(N)=O)C(=O)N[C@@H](CC(C)C)C(=O)N[C@@H](CO)C(=O)O [F572A] | Kd (USP20 DUSP2 domain [1]; competitive FP: unlabeled peptide (N-acetylated, C-amidated) against protein with 10 nM FITC-labeled peptide, 50 mM phosphate pH 7.4, room temperature, technical triplicate, read-out: KD, USP20 DUSP2): > 600 µM; Kd (USP33 DUSP2 domain [2]): > 900 µM
 |  |  |  | CC[C@H](C)[C@H](NC(=O)[C@H](Cc1ccc(O)cc1)NC(=O)[C@@H]1C[C@@H](O)CN1C(C)=O)C(=O)N1CCC[C@H]1C(=O)N[C@@H](CCSC)C(=O)N[C@@H](CC(=O)O)C(=O)N[C@@H](CC(=O)O)C(=O)N[C@@H](CC(=O)O)C(=O)N[C@@H](Cc1ccccc1)C(=O)N[C@@H](CCC(N)=O)C(=O)N[C@@H](CC(C)C)C(=O)N[C@@H](CCCNC(=N)N)C(=O)N[C@@H](CO)C(=O)N[C@@H](Cc1ccccc1)C(=O)N[C@@H](CC(=O)O)C(=O)N[C@@H](CCC(N)=O)C(=O)N[C@@H](CC(C)C)C(=O)N[C@@H](CO)C(N)=O [HyPro-HIF1A564-581] | Kd (USP33 DUSP2 domain [2]): 7 µM
-24.9243 | -15.5033 | -8.681 | -8.681 | ATLATAWSLVEAAGLD [BAHCC1_2] | 
 |  |  |  | Ac-PYIPMDKDFQLRSFDQLS-NH2 [D570K] | Kd (USP33 DUSP2 domain [2]): 10 µM
 |  |  |  | Ac-PYIPMDKDFQLRSFDQLS-NH2 [HIF1A_D570K] | Kd (USP20 DUSP2 domain [1]; USP20_DUSP2, FP displacement by unlabelled peptide, read-out: KD): 18.8 µM
 |  |  |  | DLLSVAEMVALVEQRA [FBXO46_168-183] | mean_counts_% [5, 6]: 16.99%; specificity [5, 6]: 1.00
68.6966 | -16.4483 | -9.211 | -9.211 | EAGLALRTDLQGEAQI [ZNF783] | 
29.5039 | -22.4783 | -12.59 | -12.5871 | EEDVLAFNLQHLATLA [BAHCC1_1] | 
1.956 | -0.4433 | -0.2483 | -0.2483 | EGTEVAFPLLVSHRSQ [EMSY] | 
10.516 | -31.4033 | -17.58 | -17.5849 | EKEDSCFELLHRAVGH [ASB8] | 
19.7113 | 27.0767 | 15.16 | 15.1621 | GGLTDLSSLIQAGQQF [SGTB] | 
36.7483 | 178.582 | 100 | 100 | KEQLSSFDISPREKLI [ARNTL2] | 
49.982 | 72.2767 | 40.47 | 40.4726 | KGHSRDFVLRRDLSAT [ZIC5] | 
61.0297 | 138.987 | 77.83 | 77.8281 | KMGSDEFDISPRISKQ [MGA] | 
27.858 | 44.4667 | 24.9 | 24.8999 | LRHPSGWWLVENEDRQ [NOXO1] | 
-0.2743 | -8.778 | -4.916 | -4.916 | MNFNVWNIKEMLSIPS [IHO1] | 
22.3834 | 7.792 | 4.363 | 4.363 | NGLDIAPRYFGFIKAC [SLC17A1] | 
 |  |  |  | PDAELQRMEQEAERRR [RBM25_558-573] | specificity ([5]; bait CYLD_CAP-Gly-1 (Q9NQC7 8-210)): 0.95; max_confidence [5, 7]: 2; max_specificity [5, 7]: 0.95
 |  |  |  | PYIPMDDDFQARSFDQLS [L574A] | Kd (USP33 DUSP2 domain [2]): > 200 µM
25.9612 | 40.0217 | 22.41 | 22.4108 | QPIDNSFDIQSRDCIS [MAP3K4] | 
42.7122 | 51.5267 | 28.85 | 28.8533 | RLQKDIWDIQMRSKSL [GBP2] | 
 |  |  |  | SQQDAQEFLRALMDLL | mean_counts_% [5, 6]: 30.84%; specificity [5, 6]: 0.87; max_specificity [5, 8]: 0.87
 |  |  |  | TWWDRYEEFVGLNEVR | mean_counts_% [5, 6]: 3.88%; specificity [5, 6]: 0.28; max_specificity [5, 8]: 0.28
 |  |  |  | VAEMVALVEQRA | max_specificity [5, 8]: 1.00
 |  |  |  | VAEMVALVEQRAALAL | mean_counts_% [5, 6]: 0.0147%; specificity [5, 6]: 0.48
-36.2833 | -28.3983 | -15.9 | -15.9022 | VKHPRFFALFEKHGGY [PPIP5K1] | 
 |  |  |  | WRFEQLEWRSILLDMA | max_specificity [5, 8]: 0.60
